US20250017914A1, “6-AZA-QUINOLINE DERIVATIVES AND RELATED USES” (Black Diamond Therapeutics, Inc., priority 2021, published 2025)

Target: T1, BaF3 BRAF-KIAA1549 fusion cells (Homo sapiens, UniProt P15056)
T1 construct: The BRAF-KIAA1549 fusion mutant was subcloned into pMXs-IRES-Blasticidin (RTV-016, Cell Biolabs, San Diego, CA); No tag given; Q9HCM3 (UPF0606 protein KIAA1549)
Experiment: BaF3 BRAF-KIAA1549 fusion cell proliferation assay (CellTiterGlo, 96 hours)
Format: cell-based
How it was run: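 BaF3 cells retrovirally transduced with BRAF-KIAA1549 fusion and blasticidin-selected were plated at 7×10^4 c/well in RPMI, 10% heat-inactivated FBS, 1% L-glutamine, and exposed to compound for 96 hours. Growth was read as ATP content by CellTiterGlo luminescence. IC50 was fitted by Levenberg-Marquardt, normalised to DMSO-treated cells.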

T1 sequence (P15056 whole entry, change not shown, the tested form may be a part): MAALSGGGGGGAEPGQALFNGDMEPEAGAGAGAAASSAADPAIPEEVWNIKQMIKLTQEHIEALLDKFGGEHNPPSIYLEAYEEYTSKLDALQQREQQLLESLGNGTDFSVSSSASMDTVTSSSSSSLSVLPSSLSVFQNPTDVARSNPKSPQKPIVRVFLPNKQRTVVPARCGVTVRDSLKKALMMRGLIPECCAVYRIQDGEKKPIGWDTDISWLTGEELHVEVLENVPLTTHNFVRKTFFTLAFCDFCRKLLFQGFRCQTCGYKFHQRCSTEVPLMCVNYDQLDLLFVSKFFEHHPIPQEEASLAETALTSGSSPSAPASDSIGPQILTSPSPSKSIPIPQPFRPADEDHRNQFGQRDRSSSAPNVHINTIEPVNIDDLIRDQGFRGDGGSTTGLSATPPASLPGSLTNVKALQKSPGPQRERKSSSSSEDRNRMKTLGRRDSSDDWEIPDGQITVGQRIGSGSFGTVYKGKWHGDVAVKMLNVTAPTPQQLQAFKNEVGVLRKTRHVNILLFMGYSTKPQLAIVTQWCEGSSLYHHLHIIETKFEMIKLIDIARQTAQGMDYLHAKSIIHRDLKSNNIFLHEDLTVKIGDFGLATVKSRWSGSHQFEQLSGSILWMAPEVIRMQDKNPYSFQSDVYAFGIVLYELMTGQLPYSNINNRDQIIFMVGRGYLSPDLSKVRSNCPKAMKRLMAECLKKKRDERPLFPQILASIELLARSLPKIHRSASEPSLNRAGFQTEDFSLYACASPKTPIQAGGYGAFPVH

| SMILES | GI50 (Table A2) [nM] | GI50 (Table A1) [nM] |
| --- | --- | --- |
| CNc1cc2ncc(-c3c(C)ncc(NC(=O)c4cc(C(C)(C)C#N)ccn4)c3Cl)cc2cn1 [Compound 197, N-[4-chloro-6-methyl-5-[7-(methylamino)-1,6-naphthyridin-3-yl]-3-pyridyl]-4-(1-cyano-1-methyl-ethyl)pyridine-2-carboxamide] | ≥ 500 | – |
| CNc1cc2ncc(-c3cc(NC(=O)c4cnc5n4CC(C)CC5)ccc3C)cc2cn1 (centres unmarked) [Compound 204, 6-methyl-N-(4-methyl-3-(7-(methylamino)-1,6-naphthyridin-3-yl)phenyl)-5,6,7,8-tetrahydroimidazo[1,2-a]pyridine-3-carboxamide] | < 20 | – |
| CNc1cc2ncc(-c3cc(NC(=O)c4cnc5n4CCCCC5)cnc3C)cc2cn1 [Compound 232, N-(6-methyl-5-(7-(methylamino)-1,6-naphthyridin-3-yl)pyridin-3-yl)-6,7,8,9-tetrahydro-5H-imidazo[1,2-a]azepine-3-carboxamide] | 100 to 500 | – |
| CNc1cc2ncc(-c3cc(NC(=O)c4cc(C(C)(C)F)ccn4)cnc3C)cc2cn1 [Compound 65, 4-(2-Fluoropropan-2-yl)-N-(6-methyl-5-(7-(methylamino)-1,6-naphthyridin-3-yl)pyridin-3-yl)picolinamide] | – | 20 to 100 |
| CNc1cc2ncc(-c3cc(NC(=O)c4cc(C(F)(F)F)c(OCCO)cn4)ccc3C)cc2cn1 [Compound 71, 5-(2-hydroxyethoxy)-N-(4-methyl-3-(7-(methylamino)-1,6-naphthyridin-3-yl)phenyl)-4-(trifluoromethyl)picolinamide] | – | 20 to 100 |
| CNc1cc2ncc(-c3cc(NC(=O)c4cc(C(C)(C)C#N)ccn4)c(F)cc3F)cc2cn1 [Compound 43, 4-(2-Cyanopropan-2-yl)-N-(2,4-difluoro-5-(7-(methylamino)-1,6-naphthyridin-3-yl)phenyl)picolinamide] | – | 20 to 100 |
| CNc1cc2ncc(-c3cc(NC(=O)c4ccnc(C(C)(C)C#N)c4)ccc3C)cc2cn1 [Compound 56, 2-(2-Cyanopropan-2-yl)-N-(4-methyl-3-(7-(methylamino)-1,6-naphthyridin-3-yl)phenyl)isonicotinamide] | – | 20 to 100 |
| CNc1cc2ncc(-c3cc(NC(=O)c4ccnc(C(F)F)c4)cnc3C)cc2cn1 [Compound 28, 2-(Difluoromethyl)-N-(6-methyl-5-(7-(methylamino)-1,6-naphthyridin-3-yl)pyridin-3-yl)isonicotinamide] | – | 100 to 500 |
| Cc1ncc(NC(=O)c2cc(C(C)(C)C#N)ccn2)cc1-c1cnc2cc(N)ncc2c1 [Compound 176, N-(5-(7-amino-1,6-naphthyridin-3-yl)-6-methylpyridin-3-yl)-4-(2-cyanopropan-2-yl)picolinamide] | – | 20 to 100 |
| CNc1cc2ncc(-c3cc(NC(=O)C[C@@H]4C[C@H](C(F)(F)F)CCO4)cnc3C)cc2cn1 (single isomer, unassigned) [Compound 35] | – | 20 to 100 |
| CNc1cc2ncc(-c3ccc(F)c(NC(=O)c4cc(C(C)(C)C#N)ccn4)c3)cc2cn1 [Compound 45, 4-(2-Cyanopropan-2-yl)-N-(2-fluoro-5-(7-(methylamino)-1,6-naphthyridin-3-yl)phenyl)picolinamide] | – | 100 to 500 |
| CNc1ncc2cc(-c3cc(NC(=O)c4ccnc(C(C)(C)C#N)c4)cnc3C)cnc2c1C#N [Compound 192, N-[5-[8-cyano-7-(methylamino)-1,6-naphthyridin-3-yl]-6-methyl-3-pyridyl]-2-(1-cyano-1-methyl-ethyl)pyridine-4-carboxamide] | 100 to 500 | – |
| CNc1cc2ncc(-c3cc(NC(=O)c4cnc5n4CCCC5)ccc3C)cc2cn1 [Compound 216, N-(4-methyl-3-(7-(methylamino)-1,6-naphthyridin-3-yl)phenyl)-5,6,7,8-tetrahydroimidazo[1,2-a]pyridine-3-carboxamide] | 100 to 500 | – |
| CNc1cc2ncc(-c3cc(NC(=O)[C@H](C)n4cnc(C(F)(F)F)n4)ccc3C)cc2cn1 (single isomer, unassigned) [Compound 68] | – | 20 to 100 |
